Laboratory results as given in US9394544B2, “Ameliorating oxidative stress in neurodegenerative disease via Nox1 targeting” (University of Central Florida Research Foundation, Inc., priority 2013, dated 2016).

Columns and labels:
SN DA neurons = test: Stereologic counting of TH-immunostained DA neurons in the SN, 6-OHDA rat model; type: in vivo; settings: direct injection into the rat SN, in 2 weeks
Method: The experiments were carried out on rats, in accordance with the NIH Guide for the Care and Use of Laboratory Animals. All procedures were approved by the local Animal Care and Use Committee. Female Sprague Dawley (SD) rats (Charles River; 8-weeks-old at the time of the beginning of AAV expression or 6-OHDA treatment, 2 or 3 per cage) were maintained in a temperature/humidity-controlled environment under a 12 h light/dark cycle with free access to food and water. All rats were respectively allocated into […], Nox1 shRNA/AAV, T17N Rac1/AAV, and scramble (scb) shRNA/AAV or empty vector/AAV as control groups. Rats were deeply anesthetized (ketamine and xylazine mixture 30 mg/kg, i.p.) and placed in a rat stereotaxic apparatus, a site in the right substantia nigra (SN) [coordinate: anteroposterior (AP), −5.3 mm; mediolateral (ML), +2.0 mm; dorsoventral (DV), −5.8 mm] was selected to inject scb shRNA/AAV (n=8), Nox1 shRNA/AAV (n=16), T17N Rac1/AAV (n=16), and empty vector/AAV (n=28), respectively, according to the grouping. […]
A set consisting of six sections, 360 μm apart, were prepared. […] Numbers of TH-immunoreactive cells in the substantia nigra (SN) were counted using the optical fractionator (West 1990). […] The coefficient of error and coefficient of variation were also determined.

Nox1 = test: Nuclear localization of Nox1-EGFP in N27 cells (confocal microscopy); type: cell-based, rat; settings: N27 cells expressing Nox1-EGFP; 6-OHDA 50 μM 6 h, rotenone 5 μM 18 h
Excerpt: The observation that Nox1 was induced by a variety of oxidative stimuli in vitro led one to test Nox1 expression in the rat substantia nigra DA (SNDA) neurons administered with 6-OHDA. […] Neither astrocytes nor microglia expressed Nox1, as verified by co-immunostaining of Nox1 with GFAP (astrocytes) or CD11b (microglia) (FIG. 3B). Increased Nox1 transcript was found in the SN as shown by in situ hybridization (FIG. 3C). […] As early as 3 days post 6-OHDA injection, Nox1 expression was increased in the nucleus and in the cytoplasm of DA neurons (FIG. 4A). […] Nuclear expression of the Nox1/Rac1 complex was further analyzed in N27 cells after treatment with 6-OHDA. First, activated Rac1 was detected by immunoprecipitation of nuclear extracts of N27 cells after a 24 h treatment with 6-OHDA. […] Next, it was established that N27 cells stably expressing Nox1 tagged with EGFP at the C-terminus. […] To examine whether nuclear translocation of Nox1 in dopaminergic cells is observed under different conditions that cause dopaminergic neuronal death, mitochondrial respiratory complex inhibitor, rotenone, was tested.

NCCc1cc(O)c(O)cc1O [6-OHDA, 6-hydroxydopamine]
loss of TH-positive SNDA neurons (SN DA neurons): 90%-95% | nuclear localization of Nox1 (Nox1): translocation of Nox1-EGFP into the nucleus
